Consider 11 compounds from patent US7105310B1, “Detection of biomolecules by sensitizer-linked substrates” (California Institute of Technology, priority 2000, dated 2006).

“And” between values parts separate entries of the source, which are not always exact repeats. Equal values may be shown once.

Data set [1] deals with T1, P450 (Pseudomonas putida, UniProt P00183).
T1 construct: made in house; host or cells: E. coli
T1 sequence (P00183 1-415): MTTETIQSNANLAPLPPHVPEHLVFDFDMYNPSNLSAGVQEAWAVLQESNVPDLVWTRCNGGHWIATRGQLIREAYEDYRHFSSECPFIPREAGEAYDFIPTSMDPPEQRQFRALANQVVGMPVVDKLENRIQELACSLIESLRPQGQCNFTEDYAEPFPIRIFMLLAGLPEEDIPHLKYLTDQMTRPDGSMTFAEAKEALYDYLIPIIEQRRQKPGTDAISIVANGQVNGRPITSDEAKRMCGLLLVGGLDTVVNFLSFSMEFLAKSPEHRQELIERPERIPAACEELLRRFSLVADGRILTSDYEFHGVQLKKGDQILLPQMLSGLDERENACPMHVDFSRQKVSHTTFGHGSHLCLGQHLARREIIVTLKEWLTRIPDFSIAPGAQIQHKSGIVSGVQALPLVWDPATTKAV
Briefly: Steady-state luminescence of Ru-dppa probes in acetonitrile, buffer and buffer with P450. The following applies: for integrated luminescence intensity with P450 as % of value in acetonitrile: buffer in the presence of P450. As for the experimental part: (§1) Electrospray mass spec. data was collected on a Finnigan LCQ quadrupole ion trap mass spectrometer.
(§2) P450 was stored in small aliquots and thawed immediately before use. Samples were prepared in 50 mM Kphos buffer containing 100 mM KCl. P450 concentration was quantified using the heme soret absorption at 416.5 nm (115,000 M^−1 cm^−1). Samples were prepared in a custom quartz cuvette fitted with a Kontes Teflon stopcock. Oxygen was removed from the sample by completing at least 30 cycles of partial vacuum followed by an influx of argon.
The luminescence of compounds 1–3 was examined in acetonitrile, potassium phosphate buffer, and buffer in the presence of P450 (as described above). […] The complexes 2 and 3 show modest recoveries of luminescence, with integrated intensities that are 2.6 and 5.2% of their values in acetonitrile (FIG. 49). The luminescence from 3 is approximately 20 fold greater in the presence of P450 than in buffer alone.

A further data set deals with T2, P450cam (Pseudomonas putida, UniProt P00183).
T2 construct: made in house; host or cells: E. coli
T2 sequence (P00183 1-415): T1 sequence (P00183 1-415)
In words: Binding of [Ru(phen)2dppa]-adamantyl probes to P450. Particulars: Example VI. The method, then: as §1, §2

For data set [2], the target named is T3, cytochrome P450cam (Pseudomonas putida, UniProt P00183, C335A). Briefly: biochemical. The method, then: A Hewlett Packard 8452A spectrophotometer was used to collect UV-vis data. Buffer conditions were 50 mM potassium phosphate, 100 mM potassium chloride, pH 7.4 for all protein solutions (˜5 μM P450). […] Thus, affinities were determined by the ability of these complexes to inhibit the low- to high-spin transition produced by camphor. […] The concentration of ethanol never exceeded 1% of the total volume. […] Absorbance changes were recorded at 392 and 416 nm. […] By definition, KD=Kcam/KI, where Kcam is the dissociaton constant of camphor (in the absence of Ru-substrate), and KI is the equilibrium constant between camphor- and ruthenium-bound P450, spectroscopically determined by measuring the dissociation constant of camphor at multiple Ru concentrations. Luminescence experiments measure KD directly.

Data set [3] addresses T4, cytochrome P450cam (Pseudomonas putida, UniProt P00183). The following applies: cited from earlier work.
Another data set concerns the target T5, P450:Ru complex (Pseudomonas putida, UniProt P00183).
T5 construct: made in house
T5 sequence (P00183 2-415 limits assumed): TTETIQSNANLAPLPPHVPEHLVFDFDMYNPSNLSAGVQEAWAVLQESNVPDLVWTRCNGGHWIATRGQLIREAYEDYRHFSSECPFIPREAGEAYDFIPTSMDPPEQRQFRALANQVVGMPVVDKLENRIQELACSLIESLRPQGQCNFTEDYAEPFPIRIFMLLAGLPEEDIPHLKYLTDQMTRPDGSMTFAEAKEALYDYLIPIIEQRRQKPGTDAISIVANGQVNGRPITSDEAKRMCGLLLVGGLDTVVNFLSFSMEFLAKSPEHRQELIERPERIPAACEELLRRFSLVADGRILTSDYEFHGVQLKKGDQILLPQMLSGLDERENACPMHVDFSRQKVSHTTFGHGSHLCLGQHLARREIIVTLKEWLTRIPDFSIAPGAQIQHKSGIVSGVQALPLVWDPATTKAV
In words: Camphor titration into stoichiometric P450:Ru—C10 (UV-vis). In kind it is binding.

For a further data set, the target named is Asp251Asn (Pseudomonas putida, UniProt P00183, D252N). Particulars: decreases above 15° C.; cited from earlier work.
The target of data set [4] is T4, cytochrome P450cam. The following applies: for rate of hydroxylation (NADH consumption): NADH/PdR/Pd/P450, 1 μM P450, 20 °C. As for the experimental part:
Two cycles of acetonitrile (5 mL) addition, decanting, and rotary evaporation were performed to separate the buffer salts from the ruthenated species. The ruthenium concentration was quantified by UV-vis (ε456=14,500 M^−1 cm^−1).
Each solution was injected three different times, with intermediary blank runs of pure acetonitrile. Relative peak intensities were determined using analysis software, which deconvolved the spectra to assign one singly charged peak to each compound. […] This information was crucial in quantifying hydroxylated product yields relative to starting material in the analysis of subsequent turnover experiments.
The oxygen electrode was calibrated at 20° C. (linear response with [O2], 0–100% O2), and connected to a LeCroy oscilloscope interfaced to a PC using freely available LeCroy software (LeCroy, Chestnut Ridge, N.Y.). The O2 electrode (3 mm diameter with Teflon casing) was pushed through a septum, which formed an airtight seal with the mouth of a standard 1 cm pathlength cuvette. […] All UV-vis experiments were conducted with stirred samples at 20° C. […] Experiments were initiated upon addition of 200 μM NADH, and absorbance at 340 nm was measured simultaneously with O2 consumption.
The consumption of NADH was monitored at 340 nm by UV-vis spectroscopy and O2 consumption monitored with the microelectrode. Once all of the NADH was consumed, a known amount of 3-endo-bromo-camphor was added, and the mixture was extract three times with an equal volume of methylene chloride. The organic extract was concentrated by evaporation and analyzed by GC.

The target in data set [5] is T1, P450. Particulars: cited from earlier work.
Another data set concerns nNOS. The following applies: cited from earlier work.
Another data set relates to eNOS. Particulars: cited from earlier work.
The subject of another data set is iNOS. Particulars: cited from earlier work.
The subject of data set [6] is six heme proteins (yeast cytochrome c, horse skeletal muscle myoglobin, bovine lipase cytochrome b5, bovine liver catalase, recombinant yeast cytochrome c …). Briefly: Emission decay of Ru-substrate in presence of other heme proteins. The following applies: […] Ru—C9-Ad, 50 mM sodium phosphate pH 7; monophasic = no binding.
Another data set has as its system NOS. The following applies: cited from earlier work.
For data set [7], the target named is T3, cytochrome P450cam. The following applies: untethered control complexes.

A word on the Kd: it is the free concentration of one partner at which half of the binding sites on the other are occupied at equilibrium, for simple one-to-one binding. Regarding Ru(phen)2dppa-adm [compound 3], at P450 [1] (based on reported quantum yield of [Ru(phen)2dppz]2+ in aerated acetonitrile), the “quantum yield bound to P450” value is 0.00038. For the same compound, the “integrated luminescence intensity with P450 as % of value in acetonitrile” value at P450 [1] is reported as 5.2%. The compound further came in with a Kd at P450cam of 0.18 µM.

For `CC12CCC(CC1=O)C2(C)C` (stereo not shown) [camphor], the dissociation constant Kd is 3 µM and 3.1 µM on cytochrome P450cam [2] (dissociation constant of camphor (KS, Kcam), P450 alone, no Ru-substrate, 50 mM potassium phosphate, 100 mM KCl, pH 7.4, 20 °C); 3.6 ± 0.2 µM on P450:Ru complex; ~1 µM and 1.6 µM on P450 [5] (comparison value, read-out: KD of camphor (natural substrate)). On cytochrome P450cam [3], the “coupling of hydroxylation reaction” value is listed as approximately 100%. Further, the “association constant for camphor (In Keq), Asp251Asn” value at Asp251Asn is recorded as approximately 14.2. The “rate of hydroxylation (NADH consumption)” value at cytochrome P450cam [4] was approximately 600 μmol NADH/min/μmol P450. Moreover, at P450 [5] (decreases below 15° C.), the “association constant for camphor (In Keq), WT P450” value was approximately 14.2.

For `NC(=O)CC1C2CC3CC(C2)CC1C3` (stereo not shown) [2-adamantylacetamide], at cytochrome P450cam [2], the “spin conversion at the heme” value is given as “full low to high spin conversion”. In addition, the “conversion of heme to high-spin species on binding” value at cytochrome P450cam [2] (ferric-aquo P450) was found to be 95%. Also, at cytochrome P450cam [4], the “yield of hydroxylated product based on NADH (product formation/NADH consumption)” value came out at 47±3% and the “rate of hydroxylation (NADH consumption)” value stood at 90±20 μmol NADH/min/μmol P450.

Turning to `CC(=N)NCc1cccc(CN)c1` [1400W], the “type of inhibition” value in the data set with nNOS was “weak, reversible inhibitor”; in the data set with eNOS, “weak, reversible inhibitor”; with iNOS, “irreversible inhibitor”.

For the compound Ru(phen)2dppa-C6-Ad [compound 1], the “luminescence increase over background” value on P450 [1] is “did not show a significant increase in luminescence”. This compound also yielded a dissociation constant Kd on P450cam of 0.25 µM.

For D-Phe-D-ArgNO2—OMe, the “dissociation constant” value on nNOS and at eNOS was “micromolar” in each case. Moreover, the equilibrium dissociation constant (Kd) on iNOS was 3600 µM.

On to [Ru(bpy)2(bpy-C9-Ad)]Cl2 [Ru—C9-Ad], for which, in data set [6], the “emission decay profile in presence of six heme proteins” value was “monophasic”. Besides, at cytochrome P450cam [4], the “effective product yield based on background oxidase activity” value is 40%; the “yield of hydroxylated product based on NADH (product formation/NADH consumption)” value is listed as 10%; the “rate of hydroxylation (NADH consumption)” value was 10±2 μmol NADH/min/μmol P450 and 8 μmol NADH/min/μmol P450.

With `NC(=O)CC12CC3CC(CC(C3)C1)C2` [1-adamantylacetamide], the “rate of hydroxylation, literature value” on cytochrome P450cam [3] (literature) was approximately 110 μmol NADH/min/μmol P450.

As to `N=C(NCCC[C@H](N)C(=O)O)N[N+](=O)[O-]` [NMA, N^ω-nitro-arginine], the “inhibition of NOS” value in the data set on NOS is “good, but non-specific inhibitor”.

Turning to Ru(phen)2dppa-gly-adm [compound 2], the “integrated luminescence intensity with P450 as % of value in acetonitrile” value on P450 [1] amounted to 2.6%. This compound registered a Kd at P450cam of 2.4 µM.

For the compound `[Cl-].[Cl-].[Ru+2].c1ccc(-c2ccccn2)nc1.c1ccc(-c2ccccn2)nc1.c1ccc(-c2ccccn2)nc1` [[Ru(bpy)3]^2+, Tris(2,2′-bipyridine)ruthenium(II) chloride], the “quenching upon addition of P450” value at cytochrome P450cam [7] is reported as “not quenched”.
